Patent US10064873B2, “Compounds and compositions for treating HIV with derivatives of Betulin” (GlaxoSmithKline LLC, priority 2011, dated 2018)
pEC50, pIC50: −log10 of the molar value.

Each compound was assayed on HIV-1 strain JR-CSF (assay: Modified PBMC (PBL) assay with human serum titration). Details: Human immunodeficiency virus 1, PBMC, read-out: estimated IC50 for 100% human serum; linear extrapolation from normalized IC50 values.
Assay type: cell-based
Procedure: In this assay, 8×10^6 cells from pooled donors were incubated with virus for 1 hour, followed by centrifugation for 1 hour. Cells were then gently re-suspended and incubated an additional 2 hours.

| Structure (SMILES) | pIC50 |
| --- | --- |
| CC(C)C1=C2[C@H]3CC[C@@H]4[C@@]5(C)CC[C@H](OC(=O)CC(C)(C)C(=O)O)C(C)(C)[C@@H]5CC[C@@]4(C)[C@]3(C)CC[C@@]2([C@@H](O)CN(CCN(C)C)Cc2ccc(Cl)cc2)CC1=O [Compound 51, 4-(((3aR,5aR,5bR,7aR,9S,11aR,11bR,13aS)-3a-((R)-2-((4-Chlorobenzyl)(2-(dimethylamino)ethyl)amino)-1-hydroxyethyl)-1-isopropyl-5a,5b,8,8,11a-pentamethyl-2-oxo-3,3a,4,5,5a,5b,6,7,7a,8,9,10,11,11a,11b,12,13,13a-octadecahydro-2H-cyclopenta[a]chrysen-9-yl)oxy)-2,2-dimethyl-4-oxobutanoic acid] | 9.48 |

Same assay, conditions: Human immunodeficiency virus 1, PBMC; 10%, 20%, 30% and 40% human serum; read-out: IC50 in the presence of human serum

| Structure (SMILES) | pIC50 |
| --- | --- |
| CC(C)C1=C2[C@H]3CC[C@@H]4[C@@]5(C)CC[C@H](OC(=O)CC(C)(C)C(=O)O)C(C)(C)[C@@H]5CC[C@@]4(C)[C@]3(C)CC[C@@]2([C@@H](O)CN(CCN(C)C)Cc2ccc(Cl)cc2)CC1=O [Compound 51, 4-(((3aR,5aR,5bR,7aR,9S,11aR,11bR,13aS)-3a-((R)-2-((4-Chlorobenzyl)(2-(dimethylamino)ethyl)amino)-1-hydroxyethyl)-1-isopropyl-5a,5b,8,8,11a-pentamethyl-2-oxo-3,3a,4,5,5a,5b,6,7,7a,8,9,10,11,11a,11b,12,13,13a-octadecahydro-2H-cyclopenta[a]chrysen-9-yl)oxy)-2,2-dimethyl-4-oxobutanoic acid] | 8.51 to 9.28 |

Each compound was assayed on HIV-1 (strain IIIB) (assay: MT4 Cell Antiviral Assay (propidium iodide or MTS readout)). Details: Human immunodeficiency virus 1, IIIB, read-out: expected range of IC50 values (control and standard).
Assay type: cell-based

| Structure (SMILES) | pIC50 |
| --- | --- |
| Cc1cn([C@H]2C[C@H](N=[N+]=[N-])[C@@H](CO)O2)c(=O)[nH]c1=O [3′-azido-3′-deoxythymidine] | 6.92 to 7.40 |

The compounds below were run on HIV NL4-3 wt (assay: MT4 antiviral assay, NL4-3 strain wild type). Details: Human immunodeficiency virus 1, NL43, MT4, read-out: EC50 NL4-3 wt (nM).
Assay type: cell-based, HIV-1

| Structure (SMILES) | EC50 [nM] |
| --- | --- |
| CC(C)C1=C2[C@H]3CC[C@@H]4[C@@]5(C)CC[C@H](OC(=O)CC(C)(C)C(=O)O)C(C)(C)[C@@H]5CC[C@@]4(C)[C@]3(C)CC[C@@]2(CCNCc2ccccc2Cl)CC1=O [Example 82, 4-{[(1R,2R,5R,10S,13R,14R, 17S,19R)-5-(2-{[(2-chlorophenyl)methyl]amino}ethyl)-1,2,14,18,18-pentamethyl-7-oxo-8-(propan-2-yl)pentacyclo[11.8.0.0^ {2,10}.0^{5,9}.0^{14,19}]henicos-8-en-17-yl]oxy}-2,2-dimethyl-4-oxobutanoic acid] | 8.9 |
| CC(C)C1=C2[C@H]3CC[C@@H]4[C@@]5(C)CC[C@H](OC(=O)CC(C)(C)C(=O)O)C(C)(C)[C@@H]5CC[C@@]4(C)[C@]3(C)CC[C@@]2(CCNC(=O)c2ccccc2)CC1=O [Example 83, 2,2-dimethyl-4-oxo-4-{[(1R,2R,5R,10S,13R,14R, 17S,19R)-1,2,14,18,18-pentamethyl-7-oxo-5-[2-(phenylformamido)ethyl]-8-(propan-2-yl)pentacyclo[11.8.0.0^ {2,10}.0^{5,9}.0^{14,19}]henicos-8-en-17-yl]oxy)butanoic acid] | 7.3 |

Same assay, conditions: Human immunodeficiency virus 1, NL43; MT4 cells; read-out: EC50 NL4-3 wt

| Structure (SMILES) | pEC50 |
| --- | --- |
| CC(=O)O[C@H](CN(CCN(C)C)Cc1ccc(F)cc1)[C@@]12CC[C@]3(C)[C@H](CC[C@@H]4[C@@]5(C)CC[C@H](OC(=O)CC(C)(C)C(=O)O)C(C)(C)[C@@H]5CC[C@]43C)C1=C(C(C)C)C(=O)C2 [Example 70, 4-(((3aR,5aR,5bR,7aR,9S,11aR,11bR,13aS)-3a-((S)-1-acetoxy-2-((2-(dimethylamino)ethyl)(4-fluorobenzyl)amino)ethyl)-1-isopropyl-5a,5b,8,8,11a-pentamethyl-2-oxo-3,3a,4,5,5a,5b,6,7,7a,8,9,10,11,11a,11b,12,13,13a-octadecahydro-2H-cyclopenta[a]chrysen-9-yl)oxy)-2,2-dimethyl-4-oxobutanoic acid] | 8.80 |
| CC(=O)O[C@@H](CN(CCN(C)C)Cc1ccc(F)cc1)[C@@]12CC[C@]3(C)[C@H](CC[C@@H]4[C@@]5(C)CC[C@H](OC(=O)CC(C)(C)C(=O)O)C(C)(C)[C@@H]5CC[C@]43C)C1=C(C(C)C)C(=O)C2 [Example 71, 4-(((3aR,5aR,5bR,7aR,9S,11aR,11bR,13aS)-3a-((R)-1-acetoxy-2-((2-(dimethylamino)ethyl)(4-fluorobenzyl)amino)ethyl)-1-isopropyl-5a,5b,8,8,11a-pentamethyl-2-oxo-3,3a,4,5,5a,5b,6,7,7a,8,9,10,11,11a,11b,12,13,13a-octadecahydro-2H-cyclopenta[a]chrysen-9-yl)oxy)-2,2-dimethyl-4-oxobutanoic acid] | 7.51 |
| CC(C)C1=C2[C@H]3CC[C@@H]4[C@@]5(C)CC[C@H](OC(=O)CC(C)(C)CC(=O)O)C(C)(C)[C@@H]5CC[C@@]4(C)[C@]3(C)CC[C@@]2([C@@H](O)CNCc2ccc(Cl)cc2)CC1=O [Example 72, 5-(((3aR,5aR,5bR,7aR,9S,11aR,11bR,13aS)-3a-((R)-2-((4-chlorobenzyl)amino)-1-hydroxyethyl)-1-isopropyl-5a,5b,8,8,11a-pentamethyl-2-oxo-3,3a,4,5,5a,5b,6,7,7a,8,9,10,11,11a,11b,12,13,13a-octadecahydro-2H-cyclopenta[a]chrysen-9-yl)oxy)-3,3-dimethyl-5-oxopentanoic acid] | 8.29 |
| CC(C)C1=C2[C@H]3CC[C@@H]4[C@@]5(C)CC[C@H](OC(=O)CC(C)(C)CC(=O)O)C(C)(C)[C@@H]5CC[C@@]4(C)[C@]3(C)CC[C@@]2([C@H](O)CNCc2ccc(Cl)cc2)CC1=O [Example 73, 5-(((3aR,5aR,5bR,7aR,9S,11aR,11bR,13aS)-3a-((S)-2-((4-chlorobenzyl)amino)-1-hydroxyethyl)-1-isopropyl-5a,5b,8,8,11a-pentamethyl-2-oxo-3,3a,4,5,5a,5b,6,7,7a,8,9,10,11,11a,11b,12,13,13a-octadecahydro-2H-cyclopenta[a]chrysen-9-yl)oxy)-3,3-dimethyl-5-oxopentanoic acid] | 7.50 |
| CC(C)C1=C2[C@H]3CC[C@@H]4[C@@]5(C)CC[C@H](OC(=O)CC(C)(C)C(=O)O)C(C)(C)[C@@H]5CC[C@@]4(C)[C@]3(C)CC[C@@]2([C@H](O)CN(CCN(C)C)Cc2ccc(Cl)cc2Cl)CC1=O [Example 74, 4-(((3aR,5aR,5bR,7aR,9S,11aR,11bR,13aS)-3a-((S)-2-((2,4-dichlorobenzyl)(2-(dimethylamino)ethyl)amino)-1-hydroxyethyl)-1-isopropyl-5a,5b,8,8,11a-pentamethyl-2-oxo-3,3a,4,5,5a,5b,6,7,7a,8,9,10,11,11a,11b,12,13,13a-octadecahydro-2H-cyclopenta[a]chrysen-9-yl)oxy)-2,2-dimethyl-4-oxobutanoic acid] | 8.54 |
| CC(C)C1=C2[C@H]3CC[C@@H]4[C@@]5(C)CC[C@H](OC(=O)CC(C)(C)C(=O)O)C(C)(C)[C@@H]5CC[C@@]4(C)[C@]3(C)CC[C@@]2([C@@H](O)CN(CCN(C)C)Cc2ccc(F)cc2)CC1=O [Example 76, 4-(((3aR,5aR,5bR,7aR,9S,11aR,11bR,13aS)-3a-((R)-2-((2-(dimethylamino)ethyl)(4-fluorobenzyl)amino)-1-hydroxyethyl)-1-isopropyl-5a,5b,8,8,11a-pentamethyl-2-oxo-3,3a,4,5,5a,5b,6,7,7a,8,9,10,11,11a,11b,12,13,13a-octadecahydro-2H-cyclopenta[a]chrysen-9-yl)oxy)-2,2-dimethyl-4-oxobutanoic acid] | 9.15 |
| CC(C)C1=C2[C@H]3CC[C@@H]4[C@@]5(C)CC[C@H](OC(=O)CC(C)(C)C(=O)O)C(C)(C)[C@@H]5CC[C@@]4(C)[C@]3(C)CC[C@@]2([C@@H](O)CNCc2ccc(F)cc2)CC1=O [Example 77, 4-(((3aR,5aR,5bR,7aR,9S,11aR,11bR,13aS)-3a-((R)-2-((4-fluorobenzyl)amino)-1-hydroxyethyl)-1-isopropyl-5a,5b,8,8,11a-pentamethyl-2-oxo-3,3a,4,5,5a,5b,6,7,7a,8,9,10,11,11a,11b,12,13,13a-octadecahydro-2H-cyclopenta[a]chrysen-9-yl)oxy)-2,2-dimethyl-4-oxobutanoic acid] | 8.33 |
| CC(C)C1=C2[C@H]3CC[C@@H]4[C@@]5(C)CC[C@H](OC(=O)CC(C)(C)C(=O)O)C(C)(C)[C@@H]5CC[C@@]4(C)[C@]3(C)CC[C@@]2([C@H](O)CN(CCN(C)C)Cc2ccc(F)cc2)CC1=O [Example 78, 4-(((3aR,5aR,5bR,7aR,9S,11aR,11bR,13aS)-3a-((S)-2-((2-(dimethylamino)ethyl)(4-fluorobenzyl)amino)-1-hydroxyethyl)-1-isopropyl-5a,5b,8,8,11a-pentamethyl-2-oxo-3,3a,4,5,5a,5b,6,7,7a,8,9,10,11,11a,11b,12,13,13a-octadecahydro-2H-cyclopenta[a]chrysen-9-yl)oxy)-2,2-dimethyl-4-oxobutanoic acid] | 8.68 |
| CC(C)C1=C2[C@H]3CC[C@@H]4[C@@]5(C)CC[C@H](OC(=O)CC(C)(C)C(=O)O)C(C)(C)[C@@H]5CC[C@@]4(C)[C@]3(C)CC[C@@]2([C@H](O)CNCc2ccc(F)cc2)CC1=O [Example 79, 4-(((3aR,5aR,5bR,7aR,9S,11aR,11bR,13aS)-3a-((S)-2-((4-fluorobenzyl)amino)-1-hydroxyethyl)-1-isopropyl-5a,5b,8,8,11a-pentamethyl-2-oxo-3,3a,4,5,5a,5b,6,7,7a,8,9,10,11,11a,11b,12,13,13a-octadecahydro-2H-cyclopenta[a]chrysen-9-yl)oxy)-2,2-dimethyl-4-oxobutanoic acid] | 7.83 |
| CC(C)C1=C2[C@H]3CC[C@@H]4[C@@]5(C)CC[C@H](OC(=O)CC(C)(C)C(=O)O)C(C)(C)[C@@H]5CC[C@@]4(C)[C@]3(C)CC[C@@]2([C@@H](O)CN(CCN(C)C)Cc2ccc(Cl)cc2Cl)CC1=O [Example 80, 4-{[(1R,2R,5R,10S,13R,14R, 17S,19R)-5-[(1R)-2-{[(2,4-dichlorophenyl)methyl][2-(dimethylamino)ethyl]amino}-1-hydroxyethyl]-1,2,14,18,18-pentamethyl-7-oxo-8-(propan-2-yl)pentacyclo[11.8.0.0^ {2,10}.0^{5,9}.0^{14,19}]henicos-8-en-17-yl]oxy}-2,2-dimethyl-4-oxobutanoic acid] | 8.62 |
| CC(C)C1=C2[C@H]3CC[C@@H]4[C@@]5(C)CC[C@H](OC(=O)CC(C)(C)C(=O)O)C(C)(C)[C@@H]5CC[C@@]4(C)[C@]3(C)CC[C@@]2([C@@H](O)CN(CCN(C)C)C(=O)c2ccc(Cl)cc2)CC1=O [Example 81, 4-{[(1R,2R,5R,10S,13R,14R, 17S,19R)-5-[(1R)-2-[1-(4-chlorophenyl)-N-[2-(dimethylamino)ethyl] formamido]-1-hydroxyethyl]-1,2,14,18,18-pentamethyl-7-oxo-8-(propan-2-yl)pentacyclo[11.8.0.0^ {2,10}.0^{5,9}.0^{14,19}]henicos-8-en-17-yl]oxy}-2,2-dimethyl-4-oxobutanoic acid] | 8.52 |
